Results as given in patent US10815274B2, “Immunogenic WT-1 peptides and methods of use thereof” (Memorial Sloan Kettering Cancer Center, priority 2012, dated 2020).
Where a SMILES comes first, the peptide text is derived from it.

What was measured:
Details in all cases: 50:1 E:T
[1] = tested on: WT1 peptide loaded autologous APC; assay: Cr51 release assay, cytotoxic CTL response vs peptide loaded autologous APC; format: cell-based, human
WT1- autologous APC = assay: Cr51 release assay, cytotoxic CTL response vs unmodified autologous APC; format: cell-based, human
[2] = tested on: WT1- allo APC with restricting HLA allele; assay: Cr51 release assay, cytotoxic CTL response vs unloaded allogeneic APC sharing restricting HLA allele; format: cell-based, human
[3] = tested on: WT1+ allo APC with restricting HLA allele loaded with WT1 peptide; assay: Cr51 release assay, cytotoxic CTL response vs peptide loaded allogeneic APC sharing restricting HLA allele (HLA restriction)

CC(C)C[C@H](NC(=O)[C@@H](N)[C@@H](C)O)C(=O)NCC(=O)N[C@H](C(=O)N[C@@H](C)C(=O)N[C@@H](C)C(=O)NCC(=O)N[C@@H](CO)C(=O)O)C(C)C [SEQ ID NO: 177] (H-TLGVAAGS-OH; N-terminus and C-terminus assumed)
Cytotoxic CTL response, % vs WT1 peptide loaded autologous APC ([1]; HLA allele A6901): 80% | Cytotoxic CTL response, % vs WT1- autologous APC (WT1- autologous APC; HLA allele A6901): 4% | Cytotoxic CTL response, % vs WT1- allo APC with restricting HLA allele ([2]; HLA allele A6901): 0% | Cytotoxic CTL response, % vs WT1+ allo APC with restricting HLA allele loaded with WT1 peptide ([3]; HLA allele A6901): 57%

CC(C)C[C@H](NC(=O)[C@@H](NC(=O)[C@@H]1CCCN1C(=O)[C@H](C)NC(=O)[C@H](Cc1c[nH]c2ccccc12)NC(=O)[C@H](CCC(N)=O)NC(=O)[C@H](C)NC(=O)[C@H](C)NC(=O)CN)C(C)C)C(=O)O [SEQ ID NO: 154] (H-GAAQWAPVL-OH; N-terminus and C-terminus assumed)
Cytotoxic CTL response, % vs WT1 peptide loaded autologous APC ([1]; HLA allele B3901): 31% | Cytotoxic CTL response, % vs WT1- autologous APC (WT1- autologous APC; HLA allele B3901): 2% | Cytotoxic CTL response, % vs WT1- allo APC with restricting HLA allele ([2]; HLA allele B3901): 0% | Cytotoxic CTL response, % vs WT1+ allo APC with restricting HLA allele loaded with WT1 peptide ([3]; HLA allele B3901): 19%

CC(C)C[C@H](NC(=O)[C@H](CO)NC(=O)[C@@H]1CCCN1C(=O)[C@@H]1CCCN1C(=O)[C@H](Cc1ccccc1)NC(=O)[C@@H](N)Cc1c[nH]cn1)C(=O)N1CCC[C@H]1C(=O)N1CCC[C@H]1C(=O)N[C@H](C(=O)O)[C@@H](C)O [SEQ ID NO: 145] (H-HFPPSLPPT-OH; N-terminus and C-terminus assumed)
Cytotoxic CTL response, % vs WT1 peptide loaded autologous APC ([1]; HLA allele A3101): 42% | Cytotoxic CTL response, % vs WT1- autologous APC (WT1- autologous APC; HLA allele A3101): 0% | Cytotoxic CTL response, % vs WT1- allo APC with restricting HLA allele ([2]; HLA allele A3101): 0% | Cytotoxic CTL response, % vs WT1+ allo APC with restricting HLA allele loaded with WT1 peptide ([3]; HLA allele A3101): 27%

CC(C)C[C@H](NC(=O)[C@H](CS)NC(=O)CNC(=O)[C@@H]1CCCN1)C(=O)N[C@@H](CCC(N)=O)C(=O)N[C@@H](CCC(N)=O)C(=O)N1CCC[C@H]1C(=O)N[C@@H](CCC(=O)O)C(=O)N[C@@H](CCC(N)=O)C(=O)N[C@@H](CCC(N)=O)C(=O)NCC(=O)O [SEQ ID NO: 149] (H-PGCLQQPEQQG-OH; N-terminus and C-terminus assumed)
Cytotoxic CTL response, % vs WT1 peptide loaded autologous APC ([1]; HLA allele DRB10101): 54% | Cytotoxic CTL response, % vs WT1- autologous APC (WT1- autologous APC; HLA allele DRB10101): 6% | Cytotoxic CTL response, % vs WT1- allo APC with restricting HLA allele ([2]; HLA allele DRB10101): 1% | Cytotoxic CTL response, % vs WT1+ allo APC with restricting HLA allele loaded with WT1 peptide ([3]; HLA allele DRB10101): 25%

C[C@H](N)C(=O)N[C@@H](CS)C(=O)N[C@@H](CCCNC(=N)N)C(=O)N[C@@H](Cc1ccc(O)cc1)C(=O)NCC(=O)N1CCC[C@H]1C(=O)N[C@@H](Cc1ccccc1)C(=O)NCC(=O)N1CCC[C@H]1C(=O)O [SEQ ID NO: 159] (H-ACRYGPFGP-OH; N-terminus and C-terminus assumed)
Cytotoxic CTL response, % vs WT1 peptide loaded autologous APC ([1]; HLA allele B4402): 46% | Cytotoxic CTL response, % vs WT1- autologous APC (WT1- autologous APC; HLA allele B4402): 8% | Cytotoxic CTL response, % vs WT1- allo APC with restricting HLA allele ([2]; HLA allele B4402): 7% | Cytotoxic CTL response, % vs WT1+ allo APC with restricting HLA allele loaded with WT1 peptide ([3]; HLA allele B4402): 23%

C[C@@H](O)[C@H](NC(=O)[C@H](CS)NC(=O)[C@H](CO)NC(=O)[C@H](CC(=O)O)NC(=O)[C@@H](NC(=O)[C@@H]1CCCN1C(=O)[C@@H](NC(=O)[C@H](Cc1c[nH]cn1)NC(=O)[C@@H](N)CS)[C@@H](C)O)[C@@H](C)O)C(=O)O [SEQ ID NO: 166] (H-CHTPTDSCT-OH)
Cytotoxic CTL response, % vs WT1 peptide loaded autologous APC ([1]; HLA allele B4402): 37% | Cytotoxic CTL response, % vs WT1- autologous APC (WT1- autologous APC; HLA allele B4402): 8% | Cytotoxic CTL response, % vs WT1- allo APC with restricting HLA allele ([2]; HLA allele B4402): 7% | Cytotoxic CTL response, % vs WT1+ allo APC with restricting HLA allele loaded with WT1 peptide ([3]; HLA allele B4402): 19%

C[C@H](NC(=O)[C@H](C)NC(=O)[C@H](Cc1c[nH]cn1)NC(=O)[C@@H](N)Cc1c[nH]cn1)C(=O)N[C@@H](CCC(N)=O)C(=O)N[C@@H](Cc1ccccc1)C(=O)N1CCC[C@H]1C(=O)N[C@@H](CC(N)=O)C(=O)N[C@@H](Cc1c[nH]cn1)C(=O)O [SEQ ID NO: 164] (H-HHAAQFPNH-OH; N-terminus and C-terminus assumed)
Cytotoxic CTL response, % vs WT1 peptide loaded autologous APC ([1]; HLA allele B3801): 26% | Cytotoxic CTL response, % vs WT1- autologous APC (WT1- autologous APC; HLA allele B3801): 0% | Cytotoxic CTL response, % vs WT1- allo APC with restricting HLA allele ([2]; HLA allele B3801): 1% | Cytotoxic CTL response, % vs WT1+ allo APC with restricting HLA allele loaded with WT1 peptide ([3]; HLA allele B3801): 17%

CC(C)C[C@H](NC(=O)[C@H](CS)NC(=O)[C@H](CO)NC(=O)[C@@H]1CCCN1)C(=O)N[C@@H](CCC(=O)O)C(=O)N[C@@H](CO)C(=O)N[C@@H](CCC(N)=O)C(=O)N1CCC[C@H]1C(=O)N[C@@H](C)C(=O)O [SEQ ID NO: 162] (H-PSCLESQPA-OH; N-terminus and C-terminus assumed)
Cytotoxic CTL response, % vs WT1 peptide loaded autologous APC ([1]; HLA allele B3501): 35% | Cytotoxic CTL response, % vs WT1- autologous APC (WT1- autologous APC; HLA allele B3501): 0% | Cytotoxic CTL response, % vs WT1- allo APC with restricting HLA allele ([2]; HLA allele B3501): 0% | Cytotoxic CTL response, % vs WT1+ allo APC with restricting HLA allele loaded with WT1 peptide ([3]; HLA allele B3501): 21%

CC(C)[C@H](NC(=O)[C@@H](NC(=O)[C@H](CO)NC(=O)[C@H](Cc1ccc(O)cc1)NC(=O)CNC(=O)[C@H](CCC(N)=O)NC(=O)[C@@H](N)CC(N)=O)[C@@H](C)O)C(=O)N[C@H](C(=O)N[C@@H](Cc1ccccc1)C(=O)O)[C@@H](C)O [SEQ ID NO: 163] (H-NQGYSTVTF-OH; N-terminus and C-terminus assumed)
Cytotoxic CTL response, % vs WT1 peptide loaded autologous APC ([1]; HLA allele A0101): 19% | Cytotoxic CTL response, % vs WT1- autologous APC (WT1- autologous APC; HLA allele A0101): 2% | Cytotoxic CTL response, % vs WT1- allo APC with restricting HLA allele ([2]; HLA allele A0101): 4% | Cytotoxic CTL response, % vs WT1+ allo APC with restricting HLA allele loaded with WT1 peptide ([3]; HLA allele A0101): 15%

CC(C)C[C@H](NC(=O)[C@H](Cc1c[nH]cn1)NC(=O)[C@H](CC(=O)O)NC(=O)[C@H](CO)NC(=O)[C@H](CCCNC(=N)N)NC(=O)[C@H](CO)NC(=O)[C@H](Cc1ccccc1)NC(=O)[C@H](CCCCN)NC(=O)[C@@H](N)CCCNC(=N)N)C(=O)O [SEQ ID NO: 181] (H-RKFSRSDHL-OH; N-terminus and C-terminus assumed)
Cytotoxic CTL response, % vs WT1 peptide loaded autologous APC ([1]; HLA allele A0201): 40% | Cytotoxic CTL response, % vs WT1- autologous APC (WT1- autologous APC; HLA allele A0201): 3% | Cytotoxic CTL response, % vs WT1- allo APC with restricting HLA allele ([2]; HLA allele A0201): 1% | Cytotoxic CTL response, % vs WT1+ allo APC with restricting HLA allele loaded with WT1 peptide ([3]; HLA allele A0201): 27%

CC(C)C[C@H](NC(=O)[C@@H](NC(=O)[C@H](C)NC(=O)CNC(=O)[C@@H](N)CC(C)C)[C@@H](C)O)C(=O)N[C@@H](CCCCN)C(=O)NCC(=O)N[C@H](C(=O)N[C@@H](C)C(=O)N[C@@H](C)C(=O)O)C(C)C [SEQ ID NO: 176] (H-LGATLKGVAA-OH; N-terminus and C-terminus assumed)
Cytotoxic CTL response, % vs WT1 peptide loaded autologous APC ([1]; HLA allele A0203): 35% | Cytotoxic CTL response, % vs WT1- autologous APC (WT1- autologous APC; HLA allele A0203): 0% | Cytotoxic CTL response, % vs WT1- allo APC with restricting HLA allele ([2]; HLA allele A0203): 0% | Cytotoxic CTL response, % vs WT1+ allo APC with restricting HLA allele loaded with WT1 peptide ([3]; HLA allele A0203): 21%
